In ChEMBL document CHEMBL4052711, “Synthesis of 4- and 5-arylthiazolinethiones as inhibitors of indoleamine 2,3-dioxygenase” (Bioorg Med Chem Lett, 2017):

Tests used:
[1] = molecular target: T1, Indoleamine 2,3-dioxygenase 1 (Homo sapiens, UniProt P14902); test: Inhibition of human IDO1 at 100 uM pre-incubated for 10 mins before L-Trp as substrate addition and measured after 30 mins by colorimetry
Target sequence in this assay (P14902 whole entry, looked up): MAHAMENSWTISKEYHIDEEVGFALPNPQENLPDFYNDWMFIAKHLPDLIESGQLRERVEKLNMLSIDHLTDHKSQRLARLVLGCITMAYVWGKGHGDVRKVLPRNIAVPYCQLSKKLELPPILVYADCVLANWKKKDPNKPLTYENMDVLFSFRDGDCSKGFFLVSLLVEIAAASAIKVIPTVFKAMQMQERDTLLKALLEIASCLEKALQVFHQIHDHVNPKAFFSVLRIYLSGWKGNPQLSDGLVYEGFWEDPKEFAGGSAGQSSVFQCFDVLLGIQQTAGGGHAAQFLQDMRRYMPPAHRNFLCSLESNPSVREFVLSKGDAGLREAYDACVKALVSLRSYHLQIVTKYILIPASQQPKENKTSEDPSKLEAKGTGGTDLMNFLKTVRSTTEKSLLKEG

[2] = molecular target: T1, Indoleamine 2,3-dioxygenase 1; test: Inhibition of human IDO1 at 10 uM pre-incubated for 10 mins before L-Trp as substrate addition and measured after 30 mins by colorimetry
Target sequence in this assay (P14902 whole entry, looked up): as above

[3] = molecular target: T1, Indoleamine 2,3-dioxygenase 1; test: Inhibition of human IDO1 pre-incubated for 10 mins before L-Trp as substrate addition and measured after 30 mins by colorimetry
Target sequence in this assay (P14902 whole entry): as the sequence (P14902 whole entry, looked up) above

SMILES: Cc1ccc(-c2c[nH]c(=S)s2)cc1
- inhibition [1]: 15%

SMILES: S=c1[nH]c(-c2ccncc2)cs1
- inhibition [1]: 21%

SMILES: Fc1ccccc1-c1csc(=S)[nH]1
- inhibition [1]: 77%

SMILES: Fc1ccccc1-c1c[nH]c(=S)s1
- inhibition [1]: 29%

SMILES: Nc1nc(-c2ccccc2)cs1
- inhibition [1]: 13%

SMILES: S=c1[nH]c(-c2cccc(Cl)c2)cs1
- inhibition [1]: 40%

SMILES: COc1ccccc1-c1c[nH]c(=S)s1
- inhibition [1]: 12%

SMILES: S=c1[nH]c(-c2cccnc2)cs1
- inhibition [1]: 48%

SMILES: Fc1cccc(-c2csc(=S)[nH]2)c1
- inhibition [1]: 28%

SMILES: COc1ccc(-c2c[nH]c(=S)s2)cc1
- inhibition [1]: 0%

SMILES: Brc1nc(-c2ccccc2)cs1
- inhibition [1]: 12%

SMILES: Sc1nc(-c2ccccc2)cs1
- inhibition [1]: 76%
- inhibition [2]: 35%

SMILES: Oc1nc(-c2ccccc2)cs1
- inhibition [1]: 15%

SMILES: O=C(O)c1ccccc1-c1csc(=S)[nH]1
- inhibition [1]: 8%

SMILES: Fc1ccc(-c2csc(S)n2)cc1
- inhibition [1]: 72%

SMILES: COc1ccc(-c2csc(=S)[nH]2)cc1
- inhibition [1]: 68%

SMILES: S=c1[nH]cc(-c2cccc(Br)c2)s1
- inhibition [1]: 48%

SMILES: COc1ccccc1-c1csc(=S)[nH]1
- inhibition [1]: 53%

SMILES: Cc1ccc(-c2csc(S)n2)cc1
- inhibition [1]: 90%
- inhibition [2]: 39%
- IC50 ([3]; read-out: IC50): 5.9 µM

SMILES: FC(F)(F)c1ccc(-c2csc(=S)[nH]2)cc1
- inhibition [1]: 37%

SMILES: S=c1[nH]cc(-c2ccccc2)s1
- inhibition [1]: 16%

SMILES: OCc1cccc(-c2csc(=S)[nH]2)c1
- inhibition [1]: 16%

SMILES: Sc1nc(-c2ccc(Cl)cc2)cs1
- inhibition [1]: 95%
- inhibition [2]: 79%
- IC50 ([3]; read-out: IC50): 2.6 µM
- IC50 ([3]; read-out: pIC50 (converted)): 2.86 µM

SMILES: N#Cc1ccc(-c2csc(=S)[nH]2)cc1
- inhibition [1]: 8%

SMILES: Clc1nc(-c2ccccc2)cs1
- inhibition [1]: 0.5%

SMILES: S=c1[nH]c(-c2cccc(Br)c2)cs1
- inhibition [1]: 81%

SMILES: S=c1[nH]c(-c2ccc(Br)cc2)cs1
- inhibition [1]: 100%
- inhibition [2]: 88%
- IC50 ([3]; read-out: IC50): 3.4 µM
